# Measured values as given in patent publication US20110305707A1, “COMPOSITIONS AND METHODS FOR TREATING CANCER” (THE CLEVELAND CLINIC FOUNDATION, priority 2010, published 2011).
# Assays:
# [1] = Plasma levels of apoA1 after subcutaneous apoA1 injection every other day; assay type: in vivo, mice; conditions: apoA1 s.c. every other day, steady state, days 22-24
# Procedure: In another part of this Example, apoA1 was injected subcutaneously into mice every other day and the plasma levels of apoA1 at steady state (shown in FIG. 9 for says 22-24) were monitored. […] This approximates the plasma levels of apoA1 in humans.
# [2] = tested on: malignant melanoma; test: Malignant melanoma animal model, apoA1 given as therapy after tumor growth is established; assay type: in vivo, mice
# Procedure: In another part of this Example, the impact of giving apoA1 as a therapy is evaluated after the tumor growth is established and metastases are detectable. The same malignant melanoma animal model is employed. ApoA1 injections were started one week after tumor injection. […] In the insets for both 16A and 16B, note that apoA1 injections actually shrink peak tumor volume by ˜50% within 1-2 weeks of therapy. A similar ˜50% reduction in peak metastases burden is also noted in the apoA1 treated mice.
# In similar experiments, ApoA2 was given in the same dosing strategy as apoA1 vs normal saline (S) control.
# [3] = tested on: F10L_B16 Melanoma Tumor cells; test: F10L_B16 melanoma in apoA1-KO mice given human ApoA1 or saline throughout the study (xenogen imaging, survival); assay type: in vivo; conditions: vs normal saline
# Procedure: In another part of this Example, human ApoA1 or normal saline (control) was given to apoA1-KO mice throughout duration of the study following the dosing schedule of 15 mg s.c. QOD. 10^5 F10L_B16 Melanoma Tumor cells were injected subcutaneously into the dorsum of the mice. Total tumor burden and metastases were quantified by xenogen imaging. […] Images of the mice 16 days post tumor injection are shown in FIG. 11, which show much greater tumor growth in the saline treated mice. Images of the mice 21 days post tumor injection are shown in FIG. 12, which show much greater tumor growth in the saline treated mice.
# [4] = ApoA1 injections started one week after tumor injection
# [5] = ApoA2 given in the same dosing strategy, vs normal saline
# [6] = 15 mg s.c. QOD throughout study
substance,measurement,setting,value
apolipoprotein A-1 [ApoA1],plasma level of apoA1,[1],75 to 175 mg/dL
same,metastases formation,[2]; [4],dramatically reduced
same,overall tumor growth,[2]; [4],dramatically reduced
same,potency at reducing cancer growth compared with ApoA2,[2]; [5],markedly more potent
same,potency at reducing metastases formation compared with ApoA2,[2]; [5],markedly more potent
same,reduction in peak metastases burden,[2]; injections started one week after tumor injection,~50%
same,shrinkage of peak tumor volume,"[2]; injections started one week after tumor injection, within 1-2 weeks of therapy",~50%
same,metastases formation (xenogen imaging),[3]; [6],blocks tumor growth and metastases formation
same,"tumor growth (total tumor burden, xenogen imaging)",[3]; [6],blocks tumor growth
same,survival,[3]; 15 mg s.c. QOD,much greater survival
